Where “and” joins values, the source holds several entries; their conditions need not be identical. Identical values can stand only once. Toxic doses and inconclusive results are not listed.
Test system: BDF1 mice, P388 leukemia ip, median survival T/C
Assay: NCI In Vivo Anticancer Drug Screen. Data for tumor model P388 Leukemia (intraperitoneal) in B6D2F1 (BDF1) mice
Conditions: endpoint: median survival time, higher = longer survival
How it was run: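 Survival ratio, drug arm over vehicle arm, in mice with a transplanted tumour.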

[1] = dose: 50.0 mg/kg/injection, schedule: Q01DX009 (ip), vehicle: Klucel (hydroxypropylcellulose) (HPC)
[2] = dose: 100.0 mg/kg/injection, schedule: Q01DX009 (ip), vehicle: Klucel (hydroxypropylcellulose) (HPC)
[3] = dose: 200.0 mg/kg/injection, schedule: Q01DX009 (ip), vehicle: Klucel (hydroxypropylcellulose) (HPC)
[4] = dose: 200.0 mg/kg/injection, schedule: Q04DX003 (ip), vehicle: Klucel (hydroxypropylcellulose) (HPC)
[5] = dose: 50.0 mg/kg/injection, schedule: Q04DX003 (ip), vehicle: saline with Tween-80
[6] = dose: 100.0 mg/kg/injection, schedule: Q04DX003 (ip), vehicle: saline with Tween-80
[7] = dose: 1.5 mg/kg/injection, schedule: Q01DX009 (ip), vehicle: saline
[8] = dose: 100.0 mg/kg/injection, schedule: Q01DX009 (ip), vehicle: saline with Tween-80
[9] = dose: 200.0 mg/kg/injection, schedule: Q04DX003 (ip), vehicle: saline with Tween-80
[10] = dose: 400.0 mg/kg/injection, schedule: Q04DX003 (ip), vehicle: saline with Tween-80

CC(=O)O/N=C(/C)c1ccccc1
T/C (dose: 25.0 mg/kg/injection, schedule: Q04DX003 (ip), vehicle: saline sonified): 100 % of control | T/C (dose: 50.0 mg/kg/injection, schedule: Q04DX003 (ip), vehicle: saline sonified): 100 % of control | T/C (dose: 100.0 mg/kg/injection, schedule: Q04DX003 (ip), vehicle: saline sonified): 100 % of control

CC(C)(C)CC(=O)OCCC[N+](C)(C)[O-]
T/C (dose: 100.0 mg/kg/injection, schedule: Q01DX005 (ip), vehicle: water): 100 % of control | T/C (dose: 200.0 mg/kg/injection, schedule: Q01DX005 (ip), vehicle: water): 100 % of control

C=CCN(CC=C)c1ccc(N(CC)CC)cc1
T/C (dose: 100.0 mg/kg/injection, schedule: Q01DX001 (ip), vehicle: Klucel (hydroxypropylcellulose) (HPC)): 87 % of control | T/C (dose: 200.0 mg/kg/injection, schedule: Q01DX001 (ip), vehicle: Klucel (hydroxypropylcellulose) (HPC)): 95 % of control | T/C (dose: 400.0 mg/kg/injection, schedule: Q01DX001 (ip), vehicle: Klucel (hydroxypropylcellulose) (HPC)): 100 % of control

C/C(=N\NC(N)=O)c1ccc(Cl)cc1
T/C [1]: 94 % of control | T/C [2]: 108 % of control

Cc1cc(N(CCCl)CCCl)ccc1/C=N\Nc1nncn1N
T/C (dose: 35.0 mg/kg/injection, schedule: Q01DX007 (ip), vehicle: Klucel (hydroxypropylcellulose) (HPC)): 157 % of control | T/C (dose: 45.0 mg/kg/injection, schedule: Q04DX003 (ip), vehicle: Klucel (hydroxypropylcellulose) (HPC)): 120 % of control | T/C (dose: 50.0 mg/kg/injection, schedule: Q01DX007 (ip), vehicle: Klucel (hydroxypropylcellulose) (HPC)): 175 % of control | T/C (dose: 75.0 mg/kg/injection, schedule: Q01DX007 (ip), vehicle: Klucel (hydroxypropylcellulose) (HPC)): 211 % of control | T/C [2]: 118 % of control | T/C (dose: 132.0 mg/kg/injection, schedule: Q04DX003 (ip), vehicle: Klucel (hydroxypropylcellulose) (HPC)): 213 % of control | T/C (dose: 132.0 mg/kg/injection, schedule: Q04DX003 (ip), vehicle: saline): 163 % of control | T/C [3]: 90 % of control | T/C [4]: 218 % of control | T/C (dose: 300.0 mg/kg/injection, schedule: Q04DX003 (ip), vehicle: Klucel (hydroxypropylcellulose) (HPC)): 122 % of control | T/C (dose: 300.0 mg/kg/injection, schedule: Q04DX003 (ip), vehicle: saline): 90 % of control

Cc1cc(N(CCO)CCO)c2cc3ccc4cccc5ccc(c2n1)c3c45
T/C (dose: 25.0 mg/kg/injection, schedule: Q04DX003 (ip), vehicle: saline with Tween-80): 98 % of control | T/C [5]: 110 % of control | T/C [6]: 93 % of control and 100 % of control

O=C1C(N2CCOCC2)=C(N2CC2)C(=O)C(N2CCOCC2)=C1N1CC1
T/C [7]: 105 % of control | T/C (dose: 3.0 mg/kg/injection, schedule: Q01DX009 (ip), vehicle: saline): 94 % of control | T/C (dose: 6.0 mg/kg/injection, schedule: Q01DX009 (ip), vehicle: saline): 94 % of control

O=c1c(O)c(-c2ccccc2)oc2ccccc12
T/C [2]: 95 % of control | T/C (dose: 100.0 mg/kg/injection, schedule: Q04DX003 (ip), vehicle: Klucel (hydroxypropylcellulose) (HPC)): 91 % of control and 103 % of control | T/C [3]: 100 % of control | T/C [4]: 91 % of control and 92 % of control | T/C (dose: 400.0 mg/kg/injection, schedule: Q01DX009 (ip), vehicle: Klucel (hydroxypropylcellulose) (HPC)): 108 % of control | T/C (dose: 400.0 mg/kg/injection, schedule: Q04DX003 (ip), vehicle: Klucel (hydroxypropylcellulose) (HPC)): 95 % of control and 96 % of control

COc1cccc(OC)c1-c1oc2ccccc2c(=O)c1O
T/C [8]: 107 % of control | T/C [6]: 104 % of control | T/C (dose: 200.0 mg/kg/injection, schedule: Q01DX009 (ip), vehicle: saline with Tween-80): 100 % of control | T/C [9]: 109 % of control | T/C (dose: 400.0 mg/kg/injection, schedule: Q01DX009 (ip), vehicle: saline with Tween-80): 100 % of control | T/C [10]: 100 % of control

O=C(CC(O)(C(F)(F)F)C(F)(F)F)c1ccco1
T/C (dose: 17.0 mg/kg/injection, schedule: Q01DX009 (ip), vehicle: saline): 100 % of control | T/C (dose: 25.0 mg/kg/injection, schedule: Q01DX009 (ip), vehicle: saline with Tween-80): 123 % of control | T/C (dose: 33.0 mg/kg/injection, schedule: Q01DX009 (ip), vehicle: saline): 100 % of control | T/C (dose: 50.0 mg/kg/injection, schedule: Q01DX009 (ip), vehicle: saline): 100 % of control | T/C [5]: 120 % of control | T/C (dose: 75.0 mg/kg/injection, schedule: Q01DX009 (ip), vehicle: saline): 100 % of control | T/C [8]: 123 % of control | T/C [6]: 120 % of control

CCOC(=O)CC(COC)C(C(=O)OCC)C(=O)OCC (configuration not stated)
T/C (dose: 25.0 mg/kg/injection, schedule: Q01DX009 (ip), vehicle: other): 95 % of control | T/C (dose: 50.0 mg/kg/injection, schedule: Q01DX009 (ip), vehicle: other): 121 % of control | T/C (dose: 50.0 mg/kg/injection, schedule: Q04DX003 (ip), vehicle: other): 122 % of control | T/C (dose: 100.0 mg/kg/injection, schedule: Q01DX009 (ip), vehicle: other): 92 % of control | T/C (dose: 100.0 mg/kg/injection, schedule: Q04DX003 (ip), vehicle: other): 122 % of control | T/C (dose: 200.0 mg/kg/injection, schedule: Q01DX009 (ip), vehicle: other): 100 % of control | T/C (dose: 200.0 mg/kg/injection, schedule: Q04DX003 (ip), vehicle: other): 122 % of control | T/C (dose: 400.0 mg/kg/injection, schedule: Q04DX003 (ip), vehicle: other): 100 % of control

c1ccc(C2OC2(c2ccccc2)c2ccccc2)cc1 (configuration not stated)
T/C [6]: 95 % of control | T/C [9]: 104 % of control | T/C [10]: 95 % of control

O=C1CCc2c(Br)cccc21
T/C [6]: 110 % of control | T/C [9]: 115 % of control | T/C [10]: 110 % of control

O=[N+]([O-])c1[nH]cnc1Br
T/C (dose: 25.0 mg/kg/injection, schedule: Q01DX009 (ip), vehicle: Klucel (hydroxypropylcellulose) (HPC)): 93 % of control | T/C [1]: 96 % of control | T/C [2]: 96 % of control | T/C [3]: 86 % of control

CCCCOCN(COCCCC)c1ccc(C)cc1
T/C (dose: 50.0 mg/kg/injection, schedule: Q01DX009 (ip), vehicle: saline with Tween-80): 100 % of control | T/C [8]: 112 % of control

NCC=C1C2CC3CC(C2)CC1C3
T/C (dose: 12.5 mg/kg/injection, schedule: Q04DX003 (ip), vehicle: saline): 103 % of control | T/C (dose: 25.0 mg/kg/injection, schedule: Q04DX003 (ip), vehicle: saline): 100 % of control | T/C (dose: 50.0 mg/kg/injection, schedule: Q04DX003 (ip), vehicle: saline): 100 % of control

c1ccc(C/C(N=Nc2ccccc2)=N\Nc2ccccc2)cc1
T/C [1]: 110 % of control | T/C [2]: 110 % of control | T/C [3]: 100 % of control

C#CCOc1ccccc(Br)c1=O
T/C (dose: 50.0 mg/kg/injection, schedule: Q04DX002 (ip), vehicle: saline with Tween-80): 115 % of control | T/C (dose: 100.0 mg/kg/injection, schedule: Q04DX002 (ip), vehicle: saline with Tween-80): 104 % of control | T/C (dose: 200.0 mg/kg/injection, schedule: Q04DX002 (ip), vehicle: saline with Tween-80): 106 % of control

CCCCCn1c(C)cc(/C=C\c2ccc3cc(C)ccc3[n+]2C)c1C
T/C (dose: 0.22 mg/kg/injection, schedule: Q01DX009 (ip), vehicle: saline): 105 % of control and 109 % of control | T/C (dose: 0.33 mg/kg/injection, schedule: Q01DX009 (ip), vehicle: saline): 95 % of control and 110 % of control | T/C (dose: 0.5 mg/kg/injection, schedule: Q01DX009 (ip), vehicle: saline): 109 % of control | T/C (dose: 0.5 mg/kg/injection, schedule: Q04DX003 (ip), vehicle: saline): 118 % of control | T/C (dose: 0.75 mg/kg/injection, schedule: Q01DX009 (ip), vehicle: saline): 90 % of control | T/C (dose: 0.88 mg/kg/injection, schedule: Q04DX003 (ip), vehicle: saline): 108 % of control | T/C (dose: 1.0 mg/kg/injection, schedule: Q04DX003 (ip), vehicle: saline): 120 % of control | T/C (dose: 1.32 mg/kg/injection, schedule: Q04DX003 (ip), vehicle: saline): 112 % of control | T/C [7]: 90 % of control | T/C (dose: 2.0 mg/kg/injection, schedule: Q04DX003 (ip), vehicle: saline): 104 % of control and 120 % of control | T/C (dose: 3.0 mg/kg/injection, schedule: Q04DX003 (ip), vehicle: saline): 116 % of control
